Laboratory results as given in patent US6835378B2, “Method and compositions for inhibiting thrombin-induced coagulation” (The Texas A&M University System University, priority 2001, dated 2004).
“Also recorded” adds a separate entry of the source.

What was measured:
[1] = target: T1, binding of rSdrG(50-597) to Fg (Staphylococcus epidermidis, UniProt Q9KI13); assay: ELISA: inhibition of rSdrG(50-597) binding to immobilized Fg by synthetic peptides; design: species or system S. epidermidis; settings: for inhibition of rSdrG(50-597) binding to Fg: 50 nM rSdrG(50-597) pre-incubated with peptide 1 h
T1 construct: made in house; host or cells: E. coli Topp3
T1 sequence (Q9KI13 50-597): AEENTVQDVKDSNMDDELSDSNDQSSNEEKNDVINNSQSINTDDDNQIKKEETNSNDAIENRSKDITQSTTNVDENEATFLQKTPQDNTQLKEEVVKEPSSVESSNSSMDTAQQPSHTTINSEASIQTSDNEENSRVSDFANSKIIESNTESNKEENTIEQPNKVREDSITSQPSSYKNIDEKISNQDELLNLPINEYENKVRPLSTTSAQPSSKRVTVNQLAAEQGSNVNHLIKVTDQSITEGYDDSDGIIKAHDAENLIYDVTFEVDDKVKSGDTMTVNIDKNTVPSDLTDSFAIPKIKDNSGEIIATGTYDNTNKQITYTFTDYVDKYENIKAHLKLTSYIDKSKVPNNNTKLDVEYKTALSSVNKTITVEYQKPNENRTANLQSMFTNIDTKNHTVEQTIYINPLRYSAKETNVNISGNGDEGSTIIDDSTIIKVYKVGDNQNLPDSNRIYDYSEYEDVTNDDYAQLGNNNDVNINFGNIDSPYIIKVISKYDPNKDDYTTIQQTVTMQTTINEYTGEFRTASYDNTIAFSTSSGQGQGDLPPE
Experimental: ELISA—Microtiter plates (Immulon 4, Dynatech Laboratories Inc.) were coated with 1 μg of Fg (Enzyme Research Labs) in PBS, pH 7.5 for 18 h at 4° C. Plates were washed three times with PBS, 0.05% Tween 20 (PBST) and blocked with 1% (w/v) bovine serum albumin (BSA) for 1 h at room temperature. Plates were washed three times with PBST and rSdrG(50-597), diluted into PBS, was added to the wells and the plate was incubated for 1 h at room temperature. Plates were washed three times with PBST and bound rSdrG(50-597) was detected by adding a 1:2000 dilution of an anti-His-tag mAb (Clontech) in PBST, 0.1% BSA. Plates were incubated for 1 h at room temperature and then washed three times with PBST. A 1:2000 dilution of goat anti-mouse alkaline phosphatase (AP)-conjugated polyclonal antibodies (Bio-Rad) in PBST, 0.1% BSA were added to the wells and the plate was incubated for 1 h at room temperature. Plates were washed three times with PBST and developed with p-nitrophenyl phosphate (Sigma) in 1 M diethanolamine, 0.5 mM MgCl2, pH 9.0 at room temperature for ˜30 min. Plates were read at 405 nm using an ELISA plate reader (Thermomax microplate reader, Molecular Devices).
In the inhibition experiments, 50 nM rSdrG(50-597) in PBS was pre-incubated with the indicated amounts of selected peptides for 1 h at room temperature. The sample mixtures were added to the Fg-coated wells and bound rSdrG(50-597) was detected as described above.

rSdrG(50-597) = rSdrG(50-597) (Staphylococcus epidermidis, UniProt Q9KI13); settings: increasing amounts of unlabeled peptide
Experimental: Fluorescence Polarization—Fluorescence polarization was used to determine the equilibrium dissociation constant (KD) for the interaction of rSdrG(50-597) with peptide β1-25. The peptide was labeled with fluorescein as previously described (18). Increasing concentrations of rSdrG(50-597) in PBS, pH 7.5, were incubated with 10 nM labeled peptide for 3 h in the dark at room temperature. Reactions were allowed to reach equilibrium. Polarization measurements were taken with a Luminescence Spectrometer LS50B (Perkin Elmer) using FL WinLab software (Perkin Elmer). Binding data was analyzed by nonlinear regression used to fit a binding function as defined by the following equation: [formula]
Determination of Equilibrium Dissociation Constants (KD)—An equilibrium dissociation constant (KD) for the interaction of rSdrG(50-597) with the Fg Bβ chain peptide β1-25 was determined.

[2] = in vivo; cited from earlier work

Substance	inhibition of rSdrG(50-597) binding to Fg [1]	also measured
ADSEGEGDFLAEGGGVR (listed as Staphylococcus epidermidis) [FpA]	essentially inactive	
FSARGHRPLD [β11-20]	essentially inactive	
FSERKDLHQGEGNPREFVENDAKGR [β1-25S]	did not interfere	inhibition of rSdrG(50-597) binding to fluorescein-labeled β1-25 (rSdrG(50-597)): not
NEEGFFSA RGHRPLD [β6-20]	Effective inhibition; also recorded: potent inhibitor	
NEEGFFSARGHRPLDKKREE [β6-25]	inhibit the binding of rSdrG(50-597) to Fg in a concentration dependent manner	
QGVNDNEEGFFSAR [FpB]	inhibited the binding of rSdrG(50-597) in a concentration dependent manner; also recorded: poor inhibitory activity	activity relative to peptide β1-25 (fold less active) ([1]; inhibition ELISA, FIG. 4C): at least 10 fold
QGVNDNEEGFFSARGHRPLDKK REE [β1-25]	inhibit the binding of rSdrG(50-597) to Fg in a concentration dependent manner	inhibition of rSdrG(50-597) binding to fluorescein-labeled β1-25 (rSdrG(50-597)): inhibited binding
heparin		major bleeding, patients [2]: 1-33%; thrombocytopenia, patients [2]: 1-5%
